Experiments:
[1] = tested on: A-beta fibrils (human A-beta 1-40); type: binding; conditions: A-beta fibrils on rat brain section; fluorescence imaging; FIG. 4-5
Procedure: (§1) In one embodiment, sections of Sprauge-Dawley naïve rat brain (Taconic) 10 microns in thickness were fixed with 10% formalin in phosphate buffered saline (PBS).
The clear film of A-beta 1-40 was diluted with distilled water to achieve a 6-mg/mL concentration. […] The clear solution was diluted to 1 mg/mL with PBS, pH 7.4 to obtain a final concentration of 1 mg/mL A-beta 1-40 then incubated at 37° C. on an orbital shaker at 200 RPM for 4 days.
(§2) The slides were washed with PBS three times then incubated with blocking buffer consisting of 10% normal goat serum in 3% BSA in PBS.
(§3) For the sandwich assay approach 100 μL of 1/250th dilution of anti-A-beta antibody, (Signet) was applied to the tissue. The tissue was then incubated for 1.5 hours at room temperature, or in an alternative approach, for 45 minutes at 37° C. Next, a 1/100th dilution of the secondary antibody Alexa Flour 594-goat antimouse IgG (Molecular Probes) was prepared in PBS and 100 μl was applied to the slides, which were then incubated at room temperature for 1.5 hours. […]
(§4) Microscopic examination was performed using a Leica (Leica Microsystems Inc, Bannockburn Ill.) wide-field fluorescence microscope.
(§5) The fluorescent images were quantified by calculating the sum of pixel intensity of the immunofluorescence for each amyloid species. […]

[2] = tested on: soluble oligomeric A-beta (human beta-amyloid 1-42); type: binding; conditions: for binding to soluble oligomeric A-beta: A-beta species on Sprague-Dawley naive rat brain section (hippocampus), fluorescence imaging, FIG. 2-3
Procedure: as §1
Soluble A-beta oligomer formation. 1 mg of human beta-amyloid 1-42 (H-5642, Bachem) and 500 uL of 1,1,1,3,3,3 hexafluoro-2-propanol (HFIP) (Aldrich) were chilled in separate bottles on ice for 30 minutes. Cold beta-amyloid 1-42 was solubilized with cold HFIP. The mixture was incubated for 1 hr at room temperature until it turned clear. The resulting solution was then dried to a film under vacuum. The film was dissolved again in cold HFIP and incubated another 1 hr at room temperature. The resulting solution was separated into aliquots in several microcentrifuge tubes. HFIP was removed under vacuum, and the films were stored at −20° C. until use. To prepare soluble oligomer, the film was dissolved in appropriate amount of dry DMSO (Sigma), and Ham's F12 media (Biosource) or PBS (Sigma, D8537) was added and incubated at 4° C. for 24 hours (final concentration of 200 uM or 0.9 mg/mL beta-amyloid in 2% DMSO).
as §2, §3, §4, §5

Compound	binding to A-beta fibrils [1]	binding to soluble oligomeric A-beta [2]	preferential binding, soluble A-beta relative to insoluble A-beta ([2]; stated as validated property of the binder)
O=Cc1ccc(-c2oc3ccccc3c2CO)o1 [68B-3]	bound	bound	preferential binder for soluble A-beta
Cc1ccc2c(c1)sc(-c1ccc(N(C)C)cc1)[n+]2C.[Cl-] [Thioflavin T]	bound	bound	–

Reference: patent US7745222B2, “Amyloid binding assays” (priority 2006, dated 2010)
